Laboratory results: ChEMBL document CHEMBL1157550, “Incorporation of fluorinated phenylalanine generates highly specific inhibitor of proteasome's chymotrypsin-like sites” (J Med Chem, 2010)
The source made the active and inactive calls. The calls are words filed in the database; no cut-off is given here.

What was measured:
[1] = target: T1, Proteasome component C5 (Homo sapiens) (UniProt P20618); assay: Inhibition of 26S proteasome beta 1 in human HEK293 cell lysate assessed as residual activity at 13.5 uM after 1 hr; type: cell-free
T1 sequence (whole entry): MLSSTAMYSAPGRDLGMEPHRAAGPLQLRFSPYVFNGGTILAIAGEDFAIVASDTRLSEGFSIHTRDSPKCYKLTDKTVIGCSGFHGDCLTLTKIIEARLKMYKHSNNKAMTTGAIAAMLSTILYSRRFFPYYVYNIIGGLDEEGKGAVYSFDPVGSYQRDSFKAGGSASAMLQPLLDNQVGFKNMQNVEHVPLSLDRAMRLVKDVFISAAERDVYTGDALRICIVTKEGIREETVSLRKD

[2] = target: T1, Proteasome component C5 (Homo sapiens); assay: (§1) Inhibition of 26S proteasome beta 1 in human HEK293 cell lysate assessed as residual activity at […] after 1 hr; type: cell-free
[3] = target: T1, Proteasome component C5 (Homo sapiens); assay: Inhibition of 26S proteasome beta 1 in human HEK293 cell lysate assessed as residual activity at 1.5 uM after 1 hr; type: cell-free
[4] = target: T1, Proteasome component C5 (Homo sapiens); assay: Inhibition of 26S proteasome beta 1 in human HEK293 cell lysate assessed as residual activity at 0.5 uM after 1 hr; type: cell-free
[5] = target: T1, Proteasome component C5 (Homo sapiens); assay: Inhibition of 26S proteasome beta 1 in human HEK293 cell lysate assessed as residual activity at 0.167 uM after 1 hr; type: cell-free
[6] = target: T1, Proteasome component C5 (Homo sapiens); assay: as §1; type: cell-free; remark: listed apart in the source
[7] = target: T1, Proteasome component C5 (Homo sapiens); assay: Inhibition of 26S proteasome beta 1 in human HEK293 cell lysate assessed as residual activity at 0.019 uM after 1 hr; type: cell-free
[8] = target: T1, Proteasome component C5 (Homo sapiens); assay: Inhibition of 26S proteasome beta 1 in human HEK293 cell lysate assessed as residual activity at 0.002 uM after 1 hr; type: cell-free
[9] = target: T1, Proteasome component C5 (Homo sapiens); assay: Inhibition of 26S proteasome beta 1 in human HEK293 cell lysate assessed as residual activity at 0.001 uM after 1 hr; type: cell-free
[10] = target: Proteasome Macropain subunit (Homo sapiens) (UniProt P49721); assay: (§2) Inhibition of 26S proteasome beta 2 in human HEK293 cell lysate assessed as residual activity at […] after 1 hr; type: cell-free
Chain of Proteasome Macropain subunit (Homo sapiens) (P49721 whole entry): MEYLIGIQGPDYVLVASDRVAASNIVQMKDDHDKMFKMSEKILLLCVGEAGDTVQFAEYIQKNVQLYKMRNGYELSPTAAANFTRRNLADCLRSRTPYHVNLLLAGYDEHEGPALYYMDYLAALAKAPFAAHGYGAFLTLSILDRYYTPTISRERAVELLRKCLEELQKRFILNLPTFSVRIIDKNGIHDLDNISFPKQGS

[11] = target: Proteasome Macropain subunit (Homo sapiens) (UniProt P49721); assay: Inhibition of 26S proteasome beta 2 in human HEK293 cell lysate assessed as residual activity at 1.5 uM after 1 hr; type: cell-free
[12] = target: Proteasome Macropain subunit (Homo sapiens) (UniProt P49721); assay: Inhibition of 26S proteasome beta 2 in human HEK293 cell lysate assessed as residual activity at 0.5 uM after 1 hr; type: cell-free
[13] = target: Proteasome Macropain subunit (Homo sapiens) (UniProt P49721); assay: Inhibition of 26S proteasome beta 2 in human HEK293 cell lysate assessed as residual activity at 0.167 uM after 1 hr; type: cell-free
[14] = target: Proteasome Macropain subunit (Homo sapiens) (UniProt P49721); assay: as §2; type: cell-free; remark: listed apart in the source
[15] = target: Proteasome Macropain subunit (Homo sapiens) (UniProt P49721); assay: Inhibition of 26S proteasome beta 2 in human HEK293 cell lysate assessed as residual activity at 0.019 uM after 1 hr; type: cell-free
[16] = target: Proteasome Macropain subunit (Homo sapiens) (UniProt P49721); assay: Inhibition of 26S proteasome beta 2 in human HEK293 cell lysate assessed as residual activity at 0.006 uM after 1 hr; type: cell-free
[17] = target: Proteasome Macropain subunit (Homo sapiens) (UniProt P49721); assay: Inhibition of 26S proteasome beta 2 in human HEK293 cell lysate assessed as residual activity at 0.002 uM after 1 hr; type: cell-free
[18] = target: Proteasome Macropain subunit (Homo sapiens) (UniProt P49721); assay: Inhibition of 26S proteasome beta 2 in human HEK293 cell lysate assessed as residual activity at 0.001 uM after 1 hr; type: cell-free
[19] = target: T1, Proteasome component C5 (Homo sapiens); assay: Inhibition of 26S proteasome beta 1 in human HEK293 cell lysate assessed as residual activity at 0.006 uM after 1 hr; type: cell-free
[20] = target: Proteasome Macropain subunit (Homo sapiens) (UniProt P49721); assay: Inhibition of 26S proteasome beta 2 in human HEK293 cell lysate assessed as residual activity at 13.5 uM after 1 hr; type: cell-free
[21] = target: T1, Proteasome component C5 (Homo sapiens); assay: Displacement of fluorescent labeled MV151 from 26S proteasome beta 1 in human HEK293 cell lysate assessed as residual activity at 1 uM after 1 hr by SDS-PAGE; type: cell-free
[22] = target: T1, Proteasome component C5 (Homo sapiens); assay: Displacement of fluorescent labeled MV151 from 26S proteasome beta 1 in human HEK293 cell lysate assessed as residual activity at 100 uM after 1 hr by SDS-PAGE; type: cell-free
[23] = target: Proteasome Macropain subunit (Homo sapiens) (UniProt P49721); assay: Displacement of fluorescent labeled MV151 from 26S proteasome beta 2 in human HEK293 cell lysate assessed as residual activity at 100 uM after 1 hr by SDS-PAGE; type: cell-free
[24] = target: T2, Proteasome Macropain subunit MB1 (Homo sapiens) (UniProt P28074); assay: Displacement of fluorescent labeled MV151 from 26S proteasome beta 5 in human HEK293 cell lysate assessed as residual activity at 1 uM after 1 hr by SDS-PAGE; type: cell-free
T2 sequence (whole entry): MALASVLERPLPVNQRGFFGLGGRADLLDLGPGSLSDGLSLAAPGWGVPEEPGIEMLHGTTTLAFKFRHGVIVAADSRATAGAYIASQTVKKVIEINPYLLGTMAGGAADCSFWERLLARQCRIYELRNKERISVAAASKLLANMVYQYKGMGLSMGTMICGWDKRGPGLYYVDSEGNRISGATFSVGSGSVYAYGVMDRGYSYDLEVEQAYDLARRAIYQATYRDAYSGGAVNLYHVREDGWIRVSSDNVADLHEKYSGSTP

[25] = target: T1, Proteasome component C5 (Homo sapiens); assay: Displacement of fluorescent labeled MV151 from 26S proteasome beta 1 in human HEK293 cell lysate assessed as disappearance of band at 0.1 to 1 uM after 1 hr by SDS-PAGE; type: cell-free
[26] = target: T2, Proteasome Macropain subunit MB1 (Homo sapiens); assay: Displacement of fluorescent labeled MV151 from 26S proteasome beta 5 in human HEK293 cell lysate assessed as disappearance of band at 0.1 to 1 uM after 1 hr by SDS-PAGE; type: cell-free
[27] = target: T2, Proteasome Macropain subunit MB1 (Homo sapiens); assay: Displacement of fluorescent labeled MV151 from 26S proteasome beta 5 in human HEK293 cell lysate assessed as residual activity at 100 uM after 1 hr by SDS-PAGE; type: cell-free
[28] = target: Proteasome Macropain subunit (Homo sapiens) (UniProt P49721); assay: Displacement of fluorescent labeled MV151 from 26S proteasome beta 2 in human HEK293 cell lysate assessed as residual activity at 1 uM after 1 hr by SDS-PAGE; type: cell-free
[29] = target: Proteasome subunit beta type-5 (Homo sapiens) (UniProt P28074); assay: Inhibition of 26S proteasome beta 5 in human HEK293 cell lysate assessed as residual activity at […] after 1 hr
[30] = target: Proteasome subunit beta type-5 (Homo sapiens) (UniProt P28074); assay: as above; remark: listed apart in the source
[31] = target: Proteasome subunit beta type-5 (Homo sapiens) (UniProt P28074); assay: Inhibition of 26S proteasome beta 5 in human HEK293 cell lysate assessed as residual activity at 1.5 uM after 1 hr
[32] = target: Proteasome subunit beta type-5 (Homo sapiens) (UniProt P28074); assay: Inhibition of 26S proteasome beta 5 in human HEK293 cell lysate assessed as residual activity at 0.5 uM after 1 hr
[33] = target: Proteasome subunit beta type-5 (Homo sapiens) (UniProt P28074); assay: Inhibition of 26S proteasome beta 5 in human HEK293 cell lysate assessed as residual activity at 13.5 uM after 1 hr
[34] = target: Proteasome subunit beta type-5 (Homo sapiens) (UniProt P28074); assay: Inhibition of 26S proteasome beta 5 in human HEK293 cell lysate assessed as residual activity at 0.167 uM after 1 hr

Row | Structure (SMILES) | Activity [1] | Activity [2] | Activity [3] | Activity [4] | Activity [5] | Activity [6] | Activity [7] | Activity [8] | Activity [9] | Activity [10] | Activity [11] | Activity [12] | Activity [13] | Activity [14] | Activity [15] | Activity [20] | Activity [21] | Activity [22] | Activity [23] | Activity [24] | other results
1 | CC(C)C[C@H](NC(=O)[C@H](Cc1c(F)c(F)c(F)c(F)c1F)NC(=O)[C@H](Cc1ccccc1)NC(=O)[C@H](Cc1ccccc1)N=[N+]=[N-])C(=O)[C@@]1(C)CO1 | 71.2% | 77.6% | 90.1% | 98.3% | 99.5% | 105% | 104% | 106% | 100% | 71% | 84.2% | 95.6% | 112% | 120% | 109% | 54.1% | 248% | 15.4% | 116% | 11.6% | Activity [16]: 90.7%; Activity [17]: 106%; Activity [18]: 105%; Activity [19]: 77.3%
2 | CC(C)C[C@H](NC(=O)[C@H](Cc1ccccc1)NC(=O)c1cnccn1)B1OC2C[C@@H]3C[C@@H](C3(C)C)[C@]2(C)O1 (stereo partly drawn) |  |  |  |  |  |  |  |  |  |  |  |  |  |  |  |  |  |  |  |  | Activity [25]: Active; Activity [26]: Active
3 | CC(C)C[C@H](NC(=O)[C@H](Cc1ccccc1)NC(=O)[C@H](Cc1ccccc1)NC(=O)[C@H](Cc1ccccc1)N=[N+]=[N-])C(=O)[C@@]1(C)CO1 | 58.3% | 54% | 69.9% | 58.4% | 84.9% | 104% | 76.8% | 100% | 105% | 26.1% | 37% | 65.8% | 89% | 115% | 82% | 10.6% | 139% | 7.2% | 133% | 4.6% | Activity [16]: 105%; Activity [17]: 109%; Activity [18]: 106%; Activity [19]: 96.5%
4 | CC(C)C[C@H](NC(=O)[C@H](Cc1cc(C(F)(F)F)cc(C(F)(F)F)c1)NC(=O)[C@H](Cc1cc(C(F)(F)F)cc(C(F)(F)F)c1)NC(=O)[C@H](Cc1ccccc1)N=[N+]=[N-])C(=O)[C@@]1(C)CO1 |  |  |  |  |  |  |  |  |  |  |  |  |  |  |  |  | 192% | 100% | 149% | 79% | Activity [27]: 31%; Activity [28]: 48%
5 | CC(C)C[C@H](NC(=O)[C@H](Cc1c(F)c(F)c(F)c(F)c1F)NC(=O)[C@H](Cc1c(F)c(F)c(F)c(F)c1F)NC(=O)[C@H](Cc1ccccc1)N=[N+]=[N-])C(=O)[C@@]1(C)CO1 |  |  |  |  |  |  |  |  |  |  |  |  |  |  |  |  | 148% | 115% | 43.2% | 94.9% | Activity [27]: 7.4%; Activity [28]: 20.4%
6 | CC(C)C[C@H](NC(=O)[C@H](Cc1c(F)c(F)c(F)c(F)c1F)NC(=O)c1cnccn1)B1OC2C[C@@H]3C[C@@H](C3(C)C)[C@]2(C)O1 (stereo partly drawn) | 1.3% | 3.1% | 12% | 40.4% | 68.7% | 92.1% | 99.5% | 96.1% | 110% | 118% | 135% | 118% | 121% | 118% | 102% | 110% |  |  |  |  | Activity [16]: 104%; Activity [17]: 99%; Activity [18]: 110%; Activity [19]: 97.5%; Activity [25]: Active; Activity [26]: Active
7 | CC(C)C[C@H](NC(=O)[C@H](Cc1ccccc1)NC(=O)[C@H](Cc1c(F)c(F)c(F)c(F)c1F)NC(=O)[C@H](Cc1ccccc1)N=[N+]=[N-])C(=O)[C@@]1(C)CO1 | 73.1% | 102% | 115% | 103% | 89.4% | 83.2% |  |  |  | 119% | 127% | 118% | 89.9% | 98.7% |  | 98.4% | 82.1% | 87.6% | 56.9% | 89.1% | Activity [27]: 0.83%; Activity [28]: 2.9%; Activity [29]: 8%; Activity [30]: 56.2%; Activity [31]: 14.7%; Activity [32]: 29.7%; Activity [33]: 5.8%; Activity [34]: 48.9%
